{"source": "the NIST ThermoML archive (doi:10.1016/j.jct.2014.06.021)", "key": {"[1]": {"details": "Crystal; DTA"}, "[2]": {"assay": "Molar enthalpy of transition or fusion", "details": "Crystal; DSC"}}, "note": "± gives the expanded uncertainty stated by the source.", "data": [{"smiles": "O=P(Oc1ccccc1)(Oc1ccccc1)N1CCN(P(=O)(Oc2ccccc2)Oc2ccccc2)CC1", "note": "[tetraphenyl piperazine-1,4-diylbis(phosphonate)]", "values": [{"measurement": "Normal melting temperature", "setting": "[1]", "value": "184.67 ± 0.53", "unit": "°C"}, {"measurement": "Molar enthalpy of transition or fusion", "setting": "[2]", "value": "14.3 ± 0.359", "unit": "kcal/mol"}]}]}
